Assay results as given in patent US8735398B2 (Bristol-Myers Squibb Company, priority 2009, dated 2014).

Each compound was assayed on HCV 1b genotype (assay: HCV replicon assay (HCV-neo replicon cells, wild-type)). Settings: HCV 1b genotype replicon; class symbol; read-out: EC50 Range against HCV 1b.
Type: cell-based, Hepatitis C virus
Method in brief: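 Inhibition was tested in replicon-bearing cells, both wild-type HCV-neo and lines with NS5A resistance substitutions, using the O'Boyle et al. 2005 replicon method or luciferase-reporter formats.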

Compound | EC50
CN(C)C(C(=O)N1CCC[C@H]1C(=O)Nc1ccc(-c2cnc(-c3ccc(NC(=O)[C@@H]4CCCN4C(=O)C(c4ccc(F)cc4F)N(C)C)cc3)o2)cc1)c1ccc(F)cc1F (single isomer, unassigned) [Example D-6] | < 4.57 nM
C[C@H](O)[C@@H](NC(=O)c1ccccc1)C(=O)N1CCC[C@H]1C(=O)Nc1ccc(-c2cnc(-c3ccc(NC(=O)[C@@H]4CCCN4C(=O)[C@H](NC(=O)c4ccccc4)[C@H](C)O)cc3)o2)cc1 [Example D-18, (R,S,2S,2′S)-N,N′-(4,4′-(oxazole-2,5-diyl)bis(4,1-phenylene))bis(1-((2R,3S)-2-benzamido-3-hydroxybutanoyl)pyrrolidine-2-carboxamide)] | 1000 to 10000 nM
O=C(Nc1ccc(-c2cnc(-c3ccc(NC(=O)C4CC5CC5N4C(=O)C4CCCO4)cc3)o2)cc1)C1CC2CC2N1C(=O)C1CCCO1 [CB-7, (1S,3S,5S,1′S,3′S,5′S)-N,N′-(1,3-oxazole-2,5-diyldi-4,1-phenylene)bis(2-((2R)-tetrahydro-2-furanylcarbonyl)-2-azabicyclo[3.1.0]hexane-3-carboxamide)] | 100 to 999 nM

Same assay, conditions: HCV 1b genotype replicon; read-out: EC50 1b

Compound | EC50
C[C@H](O)[C@@H](NC(=O)c1ccccc1)C(=O)N1CCC[C@H]1C(=O)Nc1ccc(-c2cnc(-c3ccc(NC(=O)[C@@H]4CCCN4C(=O)[C@H](NC(=O)c4ccccc4)[C@H](C)O)cc3)o2)cc1 [Example D-18, (R,S,2S,2′S)-N,N′-(4,4′-(oxazole-2,5-diyl)bis(4,1-phenylene))bis(1-((2R,3S)-2-benzamido-3-hydroxybutanoyl)pyrrolidine-2-carboxamide)] | 5960 nM

Same assay, conditions: Hepatitis C virus, HCV 1b genotype replicon; class symbol; read-out: EC50 Range against HCV 1b

Compound | EC50
O=C(Nc1ccc(-c2cnc(-c3ccc(NC(=O)[C@@H]4CCCN4C(=O)c4cccc(F)n4)cc3)o2)cc1)[C@@H]1CCCN1C(=O)c1cccc(F)n1 [OL-50, (2S,2′S)-N,N′-(1,3-oxazole-2,5-diyldi-4,1-phenylene)bis(1-((6-fluoro-2-pyridinyl)carbonyl)-2-pyrrolidinecarboxamide)] | 100 to 999 nM
O=C(Nc1ccc(-c2n[nH]nc2-c2ccc(NC(=O)[C@@H]3C[C@@H](O)CN3C(=O)Cc3ccccc3)cc2)cc1)[C@@H]1C[C@@H](O)CN1C(=O)Cc1ccccc1 [OL-21, (2S,4R,2′S,4′R)-N,N′-(1H-1,2,3-triazole-4,5-diyldi-4,1-phenylene)bis(4-hydroxy-1-(phenylacetyl)-2-pyrrolidinecarboxamide)] | 100 to 999 nM
CN(C)[C@@H](C(=O)N1CC[C@@H](NC(=O)Nc2ccc(-c3cnc(-c4ccc(NC(=O)N[C@@H]5CCN(C(=O)[C@@H](c6ccccc6)N(C)C)C5)cc4)o3)cc2)C1)c1ccccc1 [FY-8, N′,N′″-(1,3-oxazole-2,5-diyldi-4,1-phenylene)bis(1-((3R)-1-((2R)-2-(dimethylamino)-2-phenylacetyl)-3-pyrrolidinyl)urea)] | 100 to 999 nM
COc1cccc2c(C(=O)N3CCC[C@H]3C(=O)Nc3ccc(-c4nc[nH]c4-c4ccc(NC(=O)[C@@H]5CCCN5C(=O)c5nc(Cl)cc6c(OC)cccc56)cc4)cc3)nc(Cl)cc12 [JG-50, (2S,2′S)-N,N′-(1H-imidazole-4,5-diyldi-4,1-phenylene)bis(1-((3-chloro-5-methoxy-1-isoquinolinyl)carbonyl)-2-pyrrolidinecarboxamide)] | 100 to 999 nM
O=C(Nc1ccc(-c2nnc(-c3ccc(NC(=O)[C@@H]4CCCN4C(=O)Cc4ccccc4)cc3)o2)cc1)[C@@H]1CCCN1C(=O)Cc1ccccc1 [MS-9, (2S,2′S)-N,N′-(4,4′-(1,3,4-oxadiazole-2,5-diyl)bis(4,1-phenylene))bis(1-(2-phenylacetyl)pyrrolidine-2-carboxamide)] | 100 to 999 nM
CC(=O)N1CCC[C@H]1C(=O)Nc1ccc(-c2nc(-c3ccc(NC(=O)[C@@H]4C=CCN4C(=O)Cc4cccs4)cc3)cs2)cc1 [Example D-48, (2S)-N-[4-[2-[4-[[[(2S)-1-acetyl-2-pyrrolidinyl]carbonyl]amino]phenyl]-4-thiazolyl]phenyl]-2,5-dihydro-1-(2-thienylacetyl)-1H-pyrrole-2-carboxamide] | 100 to 999 nM
CCC(=O)N1CCC[C@H]1C(=O)Nc1ccc(-c2cnc(-c3ccc(NC(=O)[C@@H]4CCCN4C(=O)CC)cc3)o2)cc1 [JG-8, (2S,2′S)-N,N′-(1,3-oxazole-2,5-diyldi-4,1-phenylene)bis(1-propionyl-2-pyrrolidinecarboxamide)] | 100 to 999 nM
O=C(Nc1ccc(-c2ccc(-c3ccc(NC(=O)[C@@H]4CCCN4C(=O)OCc4ccccc4)cc3)s2)cc1)[C@@H]1CCCN1C(=O)OCc1ccccc1 [OL-23, (2S,2′S)-2,2′-[2,5-thienediylbis(4,1-phenyleneiminocarbonyl)]bis-1-pyrrolidinecarboxylic acid, bis(phenylmethyl) ester] | 4.57 to 99 nM
COc1cccc2c(C(=O)N3CCC[C@H]3C(=O)Nc3ccc(-c4ccc(-c5ccc(NC(=O)[C@@H]6CCCN6C(=O)[C@@H](c6ccccc6)N(C)C)cc5)o4)cc3)nc(Cl)cc12 [JG-65, (2S)-1-((3-chloro-5-methoxy-1-isoquinolinyl)carbonyl)-N-(4-(5-(4-((((2S)-1-((2R)-2-(dimethylamino)-2-phenylacetyl)-2-pyrrolidinyl)carbonyl)amino)phenyl)-2-furyl)phenyl)-2-pyrrolidinecarboxamide] | < 4.57 nM
CC(=O)N1CCC[C@H]1C(=O)Nc1ccc(-c2cnc(-c3ccc(NC(=O)[C@@H]4CCCN4C(=O)Cc4ccccc4)cc3)o2)cc1 [MS-1, (2S)-1-acetyl-N-(4-(2-(4-((((2S)-1-(phenylacetyl)-2-pyrrolidinyl)carbonyl)amino)phenyl)-1,3-oxazol-5-yl)phenyl)-2-pyrrolidinecarboxamide] | 100 to 999 nM
CC(=O)N[C@@H](C(=O)N1[C@H](C(=O)Nc2ccc(-c3cnc(-c4ccc(NC(=O)[C@@H]5C[C@@H]6C[C@@H]6N5C(=O)[C@H](NC(C)=O)c5ccccc5)cc4)o3)cc2)C[C@@H]2C[C@@H]21)c1ccccc1 | 4.57 to 99 nM
O=C(Nc1ccc(-c2cnc(-c3ccc(NC(=O)[C@@H]4CCCN4C(=O)c4ccncc4)cc3)o2)cc1)[C@@H]1CCCN1C(=O)c1ccncc1 [JG-10, (2S,2′S)-N,N′-(1,3-oxazole-2,5-diyldi-4,1-phenylene)bis(1-isonicotinoyl-2-pyrrolidinecarboxamide)] | 100 to 999 nM
O=C(Nc1ccc(-c2cnc(-c3ccc(NC(=O)[C@@H]4CCCN4C(=O)C4CCCCN4CC4CCCCC4)cc3)o2)cc1)[C@@H]1CCCN1C(=O)C1CCCCN1CC1CCCCC1 (stereo partly drawn) [Example D-22, (2S,2′S)-N,N′-(1,3-oxazole-2,5-diyldi-4,1-phenylene)bis(1-((1-(cyclohexylmethyl)-2-piperidinyl)carbonyl)-2-pyrrolidinecarboxamide)] | 100 to 999 nM
O=C(Nc1ccc(-c2nc[nH]c2-c2ccc(NC(=O)[C@@H]3CCCN3C(=O)Cc3ccccc3)cc2)cc1)[C@@H]1CCCN1C(=O)Cc1ccccc1 [OL-10, (2S,2′S)-N,N′-(1H-imidazole-4,5-diyldi-4,1-phenylene)bis(1-(phenylacetyl)-2-pyrrolidinecarboxamide)] | 4.57 to 99 nM
CC(=O)N1CCC[C@H]1C(=O)Nc1ccc(-c2cnc(-c3ccc(NC(=O)[C@@H]4C=CCN4C(=O)c4cccs4)cc3)o2)cc1 [MS-7, (2S)-N-[4-[5-[4-[[[(2S)-1-acetyl-2-pyrrolidinyl]carbonyl]amino]phenyl]-2-oxazolyl]phenyl]-2,5-dihydro-1-(2-thienylcarbonyl)-1H-pyrrole-2-carboxamide] | 1000 to 10000 nM
CN(C)Cc1nc(-c2ccc(NC(=O)[C@@H]3CCCN3C(=O)Cc3ccccc3)cc2)c(-c2ccc(NC(=O)[C@@H]3CCCN3C(=O)Cc3ccccc3)cc2)o1 [OL-6] | 1000 to 10000 nM
Cc1nc(-c2ccc(NC(=O)[C@@H]3CCCN3C(=O)Cc3ccccc3)cc2)c(-c2ccc(NC(=O)[C@@H]3CCCN3C(=O)Cc3ccccc3)cc2)s1 [Example D-44, (2S,2′S)-N,N′-((2-methyl-1,3-thiazole-4,5-diyl)di-4,1-phenylene)bis(1-(phenylacetyl)-2-pyrrolidinecarboxamide)] | 4.57 to 99 nM
O=C(Nc1ccc(-c2cnc(-c3ccc(NC(=O)[C@@H]4CCCCN4C(=O)Cc4ccccc4)cc3)o2)cc1)[C@@H]1CCCCN1C(=O)Cc1ccccc1 [JG-6, (2S,2′S)-N,N′-(1,3-oxazole-2,5-diyldi-4,1-phenylene)bis(1-(phenylacetyl)-2-piperidinecarboxamide)] | 100 to 999 nM

Same assay, conditions: Hepatitis C virus, HCV 1b genotype replicon; class symbols; read-out: EC50 Range against HCV 1b

Compound | EC50
O=C(Nc1ccc(-c2cnc(-c3ccc(NC(=O)[C@@H]4CCCN4C(=O)CN4C(=O)OC(c5ccccc5)C4=O)cc3)o2)cc1)[C@@H]1CCCN1C(=O)CN1C(=O)OC(c2ccccc2)C1=O (stereo partly drawn) [JR-22, (2S,2′S)-N,N′-(2,5-oxazolediyldi-4,1-phenylene)bis[1-[(2,4-dioxo-5-phenyl-3-oxazolidinyl)acetyl]-2-pyrrolidinecarboxamide]] | 1000 to 10000 nM
Cn1ccnc1C(=O)N1CCC[C@H]1C(=O)Nc1ccc(-c2cnc(-c3ccc(NC(=O)[C@@H]4CCCN4C(=O)c4nccn4C)cc3)o2)cc1 [XY-21, (2S,2′S)-N,N′-(1,3-oxazole-2,5-diyldi-4,1-phenylene)bis(1-((1-methyl-1H-imidazol-2-yl)carbonyl)-2-pyrrolidinecarboxamide)] | 1000 to 10000 nM
O=C(Nc1ccc(-c2cnc(-c3ccc(NC(=O)[C@@H]4CCCN4C(=O)c4cccnc4)cc3)o2)cc1)[C@@H]1CCCN1C(=O)c1cccnc1 [XY-4, (2S,2′S)-N,N′-(1,3-oxazole-2,5-diyldi-4,1-phenylene)bis(1-(3-pyridinylcarbonyl)-2-pyrrolidinecarboxamide)] | 100 to 999 nM
CN(C)[C@H](C(=O)N1CCC[C@H]1C(=O)Nc1ccc(-c2nnc(-c3ccc(NC(=O)[C@@H]4CCCN4C(=O)[C@H](c4ccccc4)N(C)C)cc3)o2)cc1)c1ccccc1 [RK-39, (2S,2′S)-N,N′-(1,3,4-oxadiazole-2,5-diyldi-4,1-phenylene)bis(1-((2S)-2-(dimethylamino)-2-phenylacetyl)-2-pyrrolidinecarboxamide)] | < 4.57 nM
O=C(Nc1ccc(-c2cnc(-c3ccc(NC(=O)[C@@H]4CCCN4C(=O)C(O)Cc4cccnc4)cc3)o2)cc1)[C@@H]1CCCN1C(=O)C(O)Cc1cccnc1 (stereo partly drawn) [JR-4, (2S,2′S)-N,N′-(2,5-oxazolediyldi-4,1-phenylene)bis[1-[2-hydroxy-1-oxo-3-(3-pyridinyl)propyl]-2-pyrrolidinecarboxamide]] | 1000 to 10000 nM

Same assay, conditions: Hepatitis C virus, HCV 1b genotype replicon; read-out: EC50 1b

Compound | EC50
O=C(Nc1ccc(-c2nnc(-c3ccc(NC(=O)[C@@H]4CCCN4C(=O)Cc4ccccc4)cc3)o2)cc1)[C@@H]1CCCN1C(=O)Cc1ccccc1 [MS-9, (2S,2′S)-N,N′-(4,4′-(1,3,4-oxadiazole-2,5-diyl)bis(4,1-phenylene))bis(1-(2-phenylacetyl)pyrrolidine-2-carboxamide)] | 150 nM
O=C(Nc1ccc(-c2cnc(-c3ccc(NC(=O)[C@@H]4CCCN4C(=O)CN4C(=O)OC(c5ccccc5)C4=O)cc3)o2)cc1)[C@@H]1CCCN1C(=O)CN1C(=O)OC(c2ccccc2)C1=O (stereo partly drawn) [JR-22, (2S,2′S)-N,N′-(2,5-oxazolediyldi-4,1-phenylene)bis[1-[(2,4-dioxo-5-phenyl-3-oxazolidinyl)acetyl]-2-pyrrolidinecarboxamide]] | 1720 nM
CC(=O)N[C@@H](C(=O)N1[C@H](C(=O)Nc2ccc(-c3cnc(-c4ccc(NC(=O)[C@@H]5C[C@@H]6C[C@@H]6N5C(=O)[C@H](NC(C)=O)c5ccccc5)cc4)o3)cc2)C[C@@H]2C[C@@H]21)c1ccccc1 | < 5 nM
CN(C)[C@H](C(=O)N1CCC[C@H]1C(=O)Nc1ccc(-c2nnc(-c3ccc(NC(=O)[C@@H]4CCCN4C(=O)[C@H](c4ccccc4)N(C)C)cc3)o2)cc1)c1ccccc1 [RK-39, (2S,2′S)-N,N′-(1,3,4-oxadiazole-2,5-diyldi-4,1-phenylene)bis(1-((2S)-2-(dimethylamino)-2-phenylacetyl)-2-pyrrolidinecarboxamide)] | < 5 nM
